Measurements as given in patent US11718604B2, “4-amino-6-(1,3-benzodioxole)picolinates and their use as herbicides” (Dow AgroSciences LLC, priority 2018, dated 2023).

Tests used:
Type in all cases: in vivo
[1] = tested on: CIRAR: Canada thistle (Cirsium arvense); experiment: Post-emergent herbicidal test, Canada thistle; details: post-emergence, 336 h, 14 days after application, read-out: Visual Growth Reduction (%) 14 Days After Application CIRAR; for pest or weed control at 17.5 g/ha: 17.5 g ai/ha; for pest or weed control at 35 g/ha: 35 g ai/ha; for pest or weed control at 70 g/ha: 70 g ai/ha; for pest or weed control at 140 g/ha: 140 g ai/ha
Procedure, shortened: (§1)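 Plants are raised in potting mix of pH 6.0 to 6.8 in a greenhouse until the first or second true leaf, then sprayed with formulated compound at 187 L/ha at several rates (½× to 1/16× of the top rate). After 14 d, damage is rated visually as percent injury against untreated plants.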

[2] = tested on: EPHHL: wild poinsettia (Euphorbia heterophylla); experiment: Post-emergent herbicidal test, wild poinsettia; details: post-emergence, 336 h, 14 days after application, read-out: Visual Growth Reduction (%) 14 Days After Application EPHHL; for pest or weed control at 17.5 g/ha: 17.5 g ai/ha; for pest or weed control at 35 g/ha: 35 g ai/ha; for pest or weed control at 70 g/ha: 70 g ai/ha; for pest or weed control at 140 g/ha: 140 g ai/ha
Procedure, shortened: as §1

[3] = tested on: VIOTR: wild violet (Viola tricolor); experiment: Post-emergent herbicidal test, wild violet; details: post-emergence, 336 h, 14 days after application, read-out: Visual Growth Reduction (%) 14 Days After Application VIOTR; for pest or weed control at 17.5 g/ha: 17.5 g ai/ha; for pest or weed control at 35 g/ha: 35 g ai/ha; for pest or weed control at 70 g/ha: 70 g ai/ha; for pest or weed control at 140 g/ha: 140 g ai/ha
Procedure, shortened: as §1

[4] = tested on: SORVU: shattercane (Sorghum bicolor); experiment: Post-emergent herbicidal test, shattercane; details: post-emergence, 336 h, 14 days after application, read-out: Visual Growth Reduction (%) 14 Days After Application SORVU; for pest or weed control at 17.5 g/ha: 17.5 g ai/ha; for pest or weed control at 35 g/ha: 35 g ai/ha; for pest or weed control at 70 g/ha: 70 g ai/ha; for pest or weed control at 140 g/ha: 140 g ai/ha
Procedure, shortened: as §1

[5] = tested on: CYPES: yellow nutsedge (Cyperus esculentus); experiment: Post-emergent herbicidal test, yellow nutsedge; details: post-emergence, 336 h, 14 days after application, read-out: Visual Growth Reduction (%) 14 Days After Application CYPES; for pest or weed control at 17.5 g/ha: 17.5 g ai/ha; for pest or weed control at 35 g/ha: 35 g ai/ha; for pest or weed control at 70 g/ha: 70 g ai/ha; for pest or weed control at 140 g/ha: 140 g ai/ha
Procedure, shortened: as §1

[6] = tested on: SETFA: giant foxtail (Setaria faberi); experiment: Post-emergent herbicidal test, giant foxtail; details: post-emergence, 336 h, 14 days after application, read-out: Visual Growth Reduction (%) 14 Days After Application SETFA; for pest or weed control at 17.5 g/ha: 17.5 g ai/ha; for pest or weed control at 35 g/ha: 35 g ai/ha; for pest or weed control at 70 g/ha: 70 g ai/ha; for pest or weed control at 140 g/ha: 140 g ai/ha
Procedure, shortened: as §1

[7] = tested on: ABUTH: velvetleaf (Abutilon theophrasti); experiment: Post-emergent herbicidal test, velvetleaf; details: post-emergence, 336 h, 14 days after application, read-out: Visual Growth Reduction (%) 14 Days After Application ABUTH; for pest or weed control at 17.5 g/ha: 17.5 g ai/ha; for pest or weed control at 35 g/ha: 35 g ai/ha; for pest or weed control at 70 g/ha: 70 g ai/ha; for pest or weed control at 140 g/ha: 140 g ai/ha
Procedure, shortened: as §1

[8] = tested on: IPOHE: ivyleaf morningglory (Ipomoea hederacea); experiment: Post-emergent herbicidal test, ivyleaf morningglory; details: post-emergence, 336 h, 14 days after application, read-out: Visual Growth Reduction (%) 14 Days After Application IPOHE; for pest or weed control at 17.5 g/ha: 17.5 g ai/ha; for pest or weed control at 35 g/ha: 35 g ai/ha; for pest or weed control at 70 g/ha: 70 g ai/ha; for pest or weed control at 140 g/ha: 140 g ai/ha
Procedure, shortened: as §1

[9] = tested on: DIGSA: large crabgrass (Digitaria sanguinalis); experiment: Post-emergent herbicidal test, large crabgrass; details: post-emergence, 336 h, 14 days after application, read-out: Visual Growth Reduction (%) 14 Days After Application DIGSA; for pest or weed control at 17.5 g/ha: 17.5 g ai/ha; for pest or weed control at 35 g/ha: 35 g ai/ha; for pest or weed control at 70 g/ha: 70 g ai/ha; for pest or weed control at 140 g/ha: 140 g ai/ha
Procedure, shortened: as §1

[10] = tested on: BRSNN: oilseed rape, canola (Brassica napus); experiment: Post-emergent herbicidal test, oilseed rape; details: post-emergence, 336 h, 14 days after application, read-out: Visual Growth Reduction (%) 14 Days After Application BRSNN; for pest or weed control at 17.5 g/ha: 17.5 g ai/ha; for pest or weed control at 35 g/ha: 35 g ai/ha; for pest or weed control at 70 g/ha: 70 g ai/ha; for pest or weed control at 140 g/ha: 140 g ai/ha
Procedure, shortened: as §1

[11] = tested on: ECHCG: barnyardgrass (Echinochloa crus-galli); experiment: Post-emergent herbicidal test, barnyardgrass; details: post-emergence, 336 h, 14 days after application, read-out: Visual Growth Reduction (%) 14 Days After Application ECHCG; for pest or weed control at 17.5 g/ha: 17.5 g ai/ha; for pest or weed control at 35 g/ha: 35 g ai/ha; for pest or weed control at 70 g/ha: 70 g ai/ha; for pest or weed control at 140 g/ha: 140 g ai/ha
Procedure, shortened: as §1

## Nc1c(F)c(-c2ccc(Cl)c3c2OCO3)nc(C(=O)O)c1Cl [Compound 1, 4-amino-3-chloro-6-(7-chlorobenzo[d][1,3]dioxol-4-yl)-5-fluoropicolinic acid]
[1]
  pest or weed control at 17.5 g/ha: 85%
  pest or weed control at 35 g/ha: 85%
  pest or weed control at 70 g/ha: 95%
  pest or weed control at 140 g/ha: 90%
[2]
  pest or weed control at 17.5 g/ha: 0%
  pest or weed control at 35 g/ha: 0%
  pest or weed control at 70 g/ha: 5%
  pest or weed control at 140 g/ha: 15%
[3]
  pest or weed control at 17.5 g/ha: 40%
  pest or weed control at 35 g/ha: 60%
  pest or weed control at 70 g/ha: 70%
  pest or weed control at 140 g/ha: 95%
[4]
  pest or weed control at 17.5 g/ha: 35%
  pest or weed control at 35 g/ha: 35%
  pest or weed control at 70 g/ha: 50%
  pest or weed control at 140 g/ha: 60%
[5]
  pest or weed control at 17.5 g/ha: 35%
  pest or weed control at 35 g/ha: 40%
  pest or weed control at 70 g/ha: 80%
  pest or weed control at 140 g/ha: 90%
[6]
  pest or weed control at 17.5 g/ha: 10%
  pest or weed control at 35 g/ha: 10%
  pest or weed control at 70 g/ha: 35%
  pest or weed control at 140 g/ha: 50%
[7]
  pest or weed control at 17.5 g/ha: 80%
  pest or weed control at 35 g/ha: 85%
  pest or weed control at 70 g/ha: 90%
  pest or weed control at 140 g/ha: 95%
[8]
  pest or weed control at 17.5 g/ha: 0%
  pest or weed control at 35 g/ha: 0%
  pest or weed control at 70 g/ha: 10%
  pest or weed control at 140 g/ha: 15%
[9]
  pest or weed control at 17.5 g/ha: 0%
  pest or weed control at 35 g/ha: 20%
  pest or weed control at 70 g/ha: 30%
  pest or weed control at 140 g/ha: 50%
[10]
  pest or weed control at 17.5 g/ha: 55%
  pest or weed control at 35 g/ha: 100%
  pest or weed control at 70 g/ha: 100%
  pest or weed control at 140 g/ha: 100%
[11]
  pest or weed control at 17.5 g/ha: 0%
  pest or weed control at 35 g/ha: 0%
  pest or weed control at 70 g/ha: 30%
  pest or weed control at 140 g/ha: 40%

## Nc1c(F)c(-c2ccc(Cl)c3c2OC(F)(F)O3)nc(C(=O)O)c1Cl [Compound 14]
[1]
  pest or weed control at 17.5 g/ha: 78%
  pest or weed control at 35 g/ha: 83%
  pest or weed control at 70 g/ha: 85%
  pest or weed control at 140 g/ha: 90%
[2]
  pest or weed control at 17.5 g/ha: 0%
  pest or weed control at 35 g/ha: 0%
  pest or weed control at 70 g/ha: 0%
  pest or weed control at 140 g/ha: 10%
[3]
  pest or weed control at 17.5 g/ha: 5%
  pest or weed control at 35 g/ha: 13%
  pest or weed control at 70 g/ha: 43%
  pest or weed control at 140 g/ha: 58%
[4]
  pest or weed control at 17.5 g/ha: 0%
  pest or weed control at 35 g/ha: 3%
  pest or weed control at 70 g/ha: 13%
  pest or weed control at 140 g/ha: 30%
[5]
  pest or weed control at 17.5 g/ha: 0%
  pest or weed control at 35 g/ha: 10%
  pest or weed control at 70 g/ha: 30%
  pest or weed control at 140 g/ha: 50%
[6]
  pest or weed control at 17.5 g/ha: 0%
  pest or weed control at 35 g/ha: 0%
  pest or weed control at 70 g/ha: 0%
  pest or weed control at 140 g/ha: 0%
[7]
  pest or weed control at 17.5 g/ha: 43%
  pest or weed control at 35 g/ha: 53%
  pest or weed control at 70 g/ha: 73%
  pest or weed control at 140 g/ha: 80%
[8]
  pest or weed control at 17.5 g/ha: 3%
  pest or weed control at 35 g/ha: 3%
  pest or weed control at 70 g/ha: 8%
  pest or weed control at 140 g/ha: 13%
[9]
  pest or weed control at 17.5 g/ha: 0%
  pest or weed control at 35 g/ha: 0%
  pest or weed control at 70 g/ha: 0%
  pest or weed control at 140 g/ha: 5%
[10]
  pest or weed control at 17.5 g/ha: 90%
  pest or weed control at 35 g/ha: 95%
  pest or weed control at 70 g/ha: 98%
  pest or weed control at 140 g/ha: 100%
[11]
  pest or weed control at 17.5 g/ha: 0%
  pest or weed control at 35 g/ha: 0%
  pest or weed control at 70 g/ha: 0%
  pest or weed control at 140 g/ha: 5%
